Laboratory results published in patent US20110105422A1, “USE OF G-RICH OLIGONUCLEOTIDES FOR TREATING NEOPLASTIC DISEASES” (priority 2008, published 2011).
pIC50: −log10 of the molar value. “Also recorded” adds a separate entry of the source. Like-named read-outs stand apart in the source and are kept apart here. Blank lines part the entries; values can stand above or below the molecule they belong to.

What was measured:
[1] = test system: Daudi cells; test: Sulphorhodamine B (SRB) assay, Daudi; assay type: cell-based, human
Experimental: (§1) Cells of the types described above were seeded in wells of a 96-well plate at a number optimised for each cell line.
(§2) A fixed concentration of AS1411 (either 1 μM or 2.5 μM) was added with varying concentrations of doxorubicin (ranging between 0.12 nM and 30667.0 nM) and cells were incubated for 6 days. A control was run with varying amounts of AS1411 without Doxorubicin. A second control series was run with the varying amounts of Doxorubicin but with no AS1411 present.
(§3) Cells were then washed, fixed to the 96-well plate with 16% TCA and exposed to the dye Sulphorhodamine B (SRB; available from Sigma-Aldrich, Dorset, UK; catalogue number S-1402). The optical density of the remaining cell mass after exposure to AS1411 was measured in a microplate spectrophotometer and IC50 determined.
(§4) The experiments were run in duplicate and the mean optical density calculated.
(§5) Combination index (CI) is determined using Calcusyn software (Biosoft, Cambridge UK) which employs the method of Chou, T.-C. and Talalay, P (See, Chou et al, Adv. Enz. Regul. 22: 27-55, 1984; and Chou, T.-C., Pharmacological Reviews 58:621-681, 2006.).

[2] = test system: Jurkat cells; test: Sulphorhodamine B (SRB) assay, Jurkat; assay type: cell-based; settings: 6 days
Experimental: as §1, §2, §3, §4, §5

[3] = test system: KG-1 cells; test: Sulphorhodamine B (SRB) assay, KG-1; assay type: cell-based; settings: KG-1, 6 days
Experimental: as §1, §2, §3, §4, §5

[4] = test system: Namalwa cells; test: Sulphorhodamine B (SRB) assay, Namalwa; assay type: cell-based, human
Experimental: as §1, §2, §3, §4, §5

[5] = test system: K562 cells; test: Sulphorhodamine B (SRB) assay, K562; assay type: cell-based; settings: K562, 6 days
Experimental: as §1, §2, §3, §4, §5

[6] = test system: Raji cells; test: Sulphorhodamine B (SRB) assay, Raji; assay type: cell-based, human
Experimental: as §1, §2, §3, §4, §5

[7] = test system: MV411 cells; test: Sulphorhodamine B (SRB) assay, MV411; assay type: cell-based; settings: MV411, 6 days
Experimental: as §1, §2, §3, §4, §5

[8] = test system: HL-60 cells; test: Sulphorhodamine B (SRB) assay, HL-60; assay type: cell-based; settings: HL-60, 6 days
Experimental: as §1, §2, §3, §4, §5

[9] = test system: SUP-B15 (ALL) cells; test: SRB assay, paediatric cancer cell line SUP-B15; assay type: cell-based; settings: SUP-B15, acute lymphoblastic leukaemia (ALL); 6-day SRB; average of at least two experiments
Experimental: (§6) Cells were typically seeded in wells of a 96-well plate as follows for each cell line:
(§7) AS1411 (G rich oligonucleotide of sequence ID No. 1) was added at a concentration selected from 0, 0.1, 1, 5 or 20 µM and cells were incubated for 6 days
(§8) Cells were then washed, fixed to the 96-well plate and exposed to the dye Sulphorhodamine B (SRB; available from Sigma-Aldrich, Dorset, UK; catalogue number S-1402. The optical density of the remaining cell mass after exposure to AS1411 was measured in a microplate spectrophotometer and IC50 determined. For the time course experiments, AS1411 was washed off cells at the stated time-point, and then fresh medium applied to the cells which were left to grow for the full 6 days of the assay.
as §4

[10] = test system: nucleolin; test: Western blot analysis, nucleolin; assay type: cell-based; settings: cells incubated with AS1411 for 4 days; whole cell lysate
Experimental: (§9) Cells were incubated with AS1411 for 4 days, after which cell lysates were analysed by non-reducing SDS-PAGE analysis using 4-12% NuPAGE Bis-Tris Gels (Invitrogen).
(§10) 10 μg of total protein (whole cell lysate) was loaded per well as assessed by the Lowry assay (Lowry reagent available from Sigma-Aldrich, catalogue number L3540) and detected using ECL Advance western blotting kit (GE Healthcare).
(§11) Anti-nucleolin and bax antibodies were obtained from Santa Cruz and the β-actin antibody from QED.

[11] = test system: R-1059-D (osteosarcoma); test: SRB assay, paediatric cancer cell line R-1059-D; assay type: cell-based; settings: 6-day SRB, average of at least two experiments
Experimental: as §6, §7, §8, §4

[12] = test system: MV4-11 (AML) cells; test: SRB assay, paediatric cancer cell line MV4-11; assay type: cell-based; settings: MV4-11, acute myelogenous leukaemia (AML); 6-day SRB; average of at least two experiments
Experimental: as §6, §7, §8, §4

[13] = test system: A204 (rhabdomyosarcoma); test: SRB assay, paediatric cancer cell line A204; assay type: cell-based; settings: 6-day SRB, average of at least two experiments
Experimental: as §6, §7, §8, §4

[14] = test system: SK-N-AS (neuroblastoma); test: SRB assay, paediatric cancer cell line SK-N-AS; assay type: cell-based; settings: 6-day SRB, average of at least two experiments
Experimental: as §6, §7, §8, §4

[15] = test system: Bax protein; test: Western blot analysis, Bax; assay type: cell-based; settings: cells incubated with AS1411 for 4 days; whole cell lysate; both cell lines; normalised to β-actin
Experimental: as §9, §10, §11

[16] = Homo sapiens, 144 h, 6 days, SRB, IC50 as doxorubicin concentration, alone or with fixed AS1411, read-out: Mean IC50
[17] = Homo sapiens, doxorubicin alone, read-out: Doxorubicin IC50, Alone
[18] = Homo sapiens, in combination with 2.5 μM AS1411, read-out: Doxorubicin IC50, In combination with 2.5 μM AS1411
[19] = doxorubicin IC50 alone vs in combination with 2.5 μM AS1411
[20] = Homo sapiens, 144 h, IC50 as doxorubicin concentration, alone or with fixed AS1411
[21] = 6 days, SRB, AS1411 without doxorubicin, read-out: Mean IC50

pIC50 [1, 16]: 6.66
pIC50 [1, 17]: 6.66
pIC50 [1, 18]: 7.24
pIC50 ([2]; Homo sapiens, 144 h, n=1, IC50 as doxorubicin concentration, alone or with fixed AS1411): 6.37
pIC50 [5, 20]: 5.90
pIC50 [6, 16]: 6.13
pIC50 [6, 17]: 6.13
pIC50 [6, 18]: 6.49
pIC50 ([7]; Homo sapiens, MV4-11, 144 h, IC50 as doxorubicin concentration, alone or with fixed AS1411): 7.12
pIC50 [8, 20]: 6.19
Molecule: COc1cccc2c1C(=O)c1c(O)c3c(c(O)c1C2=O)C[C@@](O)(C(=O)CO)C[C@@H]3O[C@@H]1CC(N)[C@@H](O)C(C)O1 (stereo partly drawn) [Doxorubicin, (8S,10S)-10-(4-amino-5-hydroxy-6-methyl-tetrahydro-2H-pyran-2-yloxy)-6,8,11-trihydroxy-8-(2-hydroxyacetyl)-1-methoxy-7,8,9,10-tetrahydrotetracene-5,12-dione]
Fold increase in potency [1, 19]: 3.8 fold
pIC50 [3, 20]: 5.31
pIC50 ([4]; Homo sapiens, 144 h, Namalwa, 6 days, SRB, IC50 as doxorubicin concentration, alone or with fixed AS1411, read-out: Mean IC50): 7.16
pIC50 ([4]; Homo sapiens, NAMALWA, doxorubicin alone, read-out: Doxorubicin IC50, Alone): 7.16
pIC50 ([4]; Homo sapiens, NAMALWA, in combination with 2.5 μM AS1411, read-out: Doxorubicin IC50, In combination with 2.5 μM AS1411): 7.76
Fold increase in potency ([4]; NAMALWA, doxorubicin IC50 alone vs in combination with 2.5 μM AS1411): 4.1 fold
Fold increase in potency [6, 19]: 2.3 fold

Molecule: AS1411: G-rich oligonucleotide, SEQ ID No: 1, 5′-GGTGGTGGTGGTTGTGGTGGTGGTGG-3′
pIC50 [9]: 8.64
total cell lysate nucleolin levels (Western blot) [10]: no effect
pIC50 [11]: 8.33
pIC50 [1, 21]: 5.03
pIC50 [12]: 8.68
pIC50 ([2]; n=1, AS1411 without doxorubicin): 5.95
pIC50 ([3]; AS1411 without doxorubicin): 5.63
pIC50 [13]: 8.59
pIC50 ([4]; Namalwa, 6 days, SRB, AS1411 without doxorubicin, read-out: Mean IC50): 5.49
pIC50 ([5]; AS1411 without doxorubicin): 5.15
pIC50 [6, 21]: 5.31
pIC50 ([7]; AS1411 without doxorubicin): 5.63
pIC50 [14]: 8.49
pIC50 ([8]; AS1411 without doxorubicin): 5.58
Bax protein level (Western blot) [15]: increased levels; also recorded: Up-regulation
